Measurements reported in PMC9330179 (ACS Omega, 2022).

Columns and labels:
Type in all cases: biochemical
cathepsin B [1] = molecular target: T1, cathepsin B (Homo sapiens, UniProt P07858)
cathepsin S = cathepsin S (Homo sapiens, UniProt P25774); assay: protease activity at a single dose; conditions: read-out: GER-24 (50 μM) % control activity (100%, no inhibitor)
cathepsin B [2] = molecular target: T1, cathepsin B; assay: fluorogenic Z-Glu-Lys-AMC assay at pH […], IC50
cathepsin K = molecular target: T2, cathepsin K (Homo sapiens, UniProt P43235); assay: protease activity at a single dose; conditions: read-out: GER-24 (50 μM) % control activity (100%, no inhibitor)
T2 sequence (P43235 115-329): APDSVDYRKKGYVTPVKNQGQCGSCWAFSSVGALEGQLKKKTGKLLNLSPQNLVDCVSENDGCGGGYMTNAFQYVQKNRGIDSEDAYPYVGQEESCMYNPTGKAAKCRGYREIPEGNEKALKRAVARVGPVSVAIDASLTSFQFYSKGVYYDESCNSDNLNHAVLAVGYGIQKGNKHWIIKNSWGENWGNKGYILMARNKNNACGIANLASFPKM

cathepsin H = cathepsin H (Homo sapiens, UniProt P09668); assay: protease activity at a single dose; conditions: read-out: GER-24 (50 μM) % control activity (100%, no inhibitor)
Chain of cathepsin H (P09668 116-335, other chains not shown): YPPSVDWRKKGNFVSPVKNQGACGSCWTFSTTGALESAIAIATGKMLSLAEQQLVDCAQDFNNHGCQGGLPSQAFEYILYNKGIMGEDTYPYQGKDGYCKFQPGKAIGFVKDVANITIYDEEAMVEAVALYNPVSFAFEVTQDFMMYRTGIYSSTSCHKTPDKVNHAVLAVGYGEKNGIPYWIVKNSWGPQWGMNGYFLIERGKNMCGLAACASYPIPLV

cathepsin V = cathepsin V (Homo sapiens, UniProt O60911); assay: protease activity at a single dose; conditions: read-out: GER-24 (50 μM) % control activity (100%, no inhibitor)
Chain of cathepsin V (O60911 114-334): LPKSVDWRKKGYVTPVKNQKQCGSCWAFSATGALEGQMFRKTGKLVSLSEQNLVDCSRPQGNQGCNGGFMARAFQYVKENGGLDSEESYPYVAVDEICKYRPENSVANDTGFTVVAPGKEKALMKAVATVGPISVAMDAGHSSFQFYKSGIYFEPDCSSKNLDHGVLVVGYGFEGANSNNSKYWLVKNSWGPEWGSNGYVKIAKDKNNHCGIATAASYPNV

Chain of cathepsin S (P25774 115-331): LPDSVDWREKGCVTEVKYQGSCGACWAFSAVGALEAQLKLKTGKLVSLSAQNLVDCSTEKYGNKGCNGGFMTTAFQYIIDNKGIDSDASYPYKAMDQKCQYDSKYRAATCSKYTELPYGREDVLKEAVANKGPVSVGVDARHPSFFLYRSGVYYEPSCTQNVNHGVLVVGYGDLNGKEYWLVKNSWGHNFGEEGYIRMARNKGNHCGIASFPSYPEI

O=S(=O)(O)Oc1ccc(Oc2cc(Br)c(Oc3ccc(OS(=O)(=O)O)c(Oc4ccc(Br)cc4Br)c3Br)c(Oc3ccc(Br)cc3Br)c2)cc1Br [GER-12, Crossbyanol B]
Ki (cathepsin B [1]): 1.4 µM

CCCCC/C=C\C/C=C\C=C/C#CCCCC(=O)O [GER-24, (7Z,9Z,12Z)-octadeca-7,9,12-trien-5-ynoic acid]
remaining activity at 50 µM (cathepsin S): 0%
IC50 (cathepsin B [2]): 16 µM
remaining activity at 50 µM (cathepsin K): 7%
remaining activity at 50 µM (cathepsin H): 21%
remaining activity at 50 µM (cathepsin V): 17%
